Data on three molecules can be found in EP0923530B1, “INHIBITION OF MATRIX METALLOPROTEASES BY SUBSTITUTED BIARYL OXOBUTYRIC ACIDS” (Bayer Corporation, priority 1996, dated 1997).

One experiment concerns the target T1, MMP-3 (Homo sapiens, UniProt P08254).
T1 construct: made in house; host or cells: CHO cells
The experiment is described as follows: P218 quenched fluorescence assay (MMP Microfluorometric Profiling Assay), MMP-3. It counts as biochemical. The conditions noted are these: 6 µM P218 substrate, 25 min at 37°C, pH 6.5; read-out: MMP-3 Fluorogenic IC50. The text has this: (§1) The P218 quenched fluorescence assay (Microfluorometric Profiling Assay) is a modification of that originally described by Knight, et al.. FEBS Lett. 296, 263 (1992) for a related substance and a variety of matrix metalloproteinases (MMPs) in cuvettes. The assay was run with each invention compound and the three MMPs, MMP-3, MMP-9 and MMP-2, analyzed in parallel, adapted as follows for a 96-well microtiter plate and a Hamilton AT® workstation. P218 Fluorogenic Substrate: P218 is a synthetic substrate containing a 4-acetyl-7-methoxycoumarin ( MCA) group in the N-terminal position and a 3-[2, 4-dinitrophenyl]-L-2,3-diaminopropionyl (DPA) group internally. This is a modification of a peptide reported by Knight (1992) that was used as a substrate for matrix metalloproteinases. Once the P218 peptide is cleaved (putative clip site at the Ala-Leu bond), the fluorescence of the MCA group can be detected on a fluorometer with excitation at 328 nm and emission at 393 nm. P218 is currently being produced BACHEM exclusively for Bayer. P218 has the structure: [formula]
Recombinant Human CHO Pro-MMP-3: Human CHO pro-stromelysin-257 (pro-MMP-3) was expressed and purified as described by Housley, et al.. J. Biol. Chem. 268, 4481 (1993).
Activation of Pro-MMP-3: Pro-MMP-3 at 1.72 µM (100 µg/mL) in 5 mM Tris at pH 7.5, 5 mM CaCl2, 25 mM NaCl, and 0.005% Brij-35 (MMP-3 activation buffer) was activated by incubation with TPCK (N-tosyl-(L)-phenylalanine chloromethyl ketone) trypsin (1:100 w/w to pro-MMP-3) at 25 °C for 30 min. The reaction was stopped by addition of soybean trypsin inhibitor (SBTI; 5:1 w/w to trypsin concentration). This activation protocol results in the formation of 45 kDa active MMP-3, which still contains the C-terminal portion of the enzyme.
(§2) Hamiltion Microlab AT Plus: The MMP-Profiling Assay is performed robotically on a Hamilton MicroLab AT Plus®. […]
(§3) Millipore Cytofluor II. Following incubation, the plate was read on a Cytofluor II fluorometric plate reader with excitation at 340 nm and emission at 395 nm with the gain set at 80. […]

Another experiment deals with T2, MMP-9 (Homo sapiens, UniProt P14780).
T2 construct: made in house
The experiment is described as follows: P218 quenched fluorescence assay (MMP Microfluorometric Profiling Assay), MMP-9. It counts as biochemical. The conditions noted are these: 6 µM P218 substrate, 25 min at 37°C, pH 6.5; read-out: MMP-9 Fluorogenic IC50.
Source text: as §1
Recombinant Human Pro-MMP-9: Human pro-gelatinase B (pro-MMP-9) derived from U937 cDNA as described by Wilhelm, et al. J. Biol. Chem. 264, 17213 (1989) was expressed as the full-length form using a baculovirus protein expression system. The pro-enzyme was purified using methods previously described by Hibbs, et al. J. Biol. Chem. 260, 2493 (1984).
Activation of Pro-MMP-9: […] 20 µg/mL in 50 mM Tris at pH 7.4, 10mM CaCl2, 150 mM NaCl, and 0.005% Brij-35 (MMP-9 activation buffer) was activated by incubation with 0.5 mM p-aminophenylmercuric acetate (APMA) for 3.5 h at 37°C. The enzyme was dialyzed against the same buffer to revmove the APMA.
as §2, §3

Another experiment deals with MMP-2 (Homo sapiens, UniProt P08253). The experiment is described as follows: biochemical.

Molecules are shown by their SMILES.

T2 sequence (P14780 107-707 limits assumed): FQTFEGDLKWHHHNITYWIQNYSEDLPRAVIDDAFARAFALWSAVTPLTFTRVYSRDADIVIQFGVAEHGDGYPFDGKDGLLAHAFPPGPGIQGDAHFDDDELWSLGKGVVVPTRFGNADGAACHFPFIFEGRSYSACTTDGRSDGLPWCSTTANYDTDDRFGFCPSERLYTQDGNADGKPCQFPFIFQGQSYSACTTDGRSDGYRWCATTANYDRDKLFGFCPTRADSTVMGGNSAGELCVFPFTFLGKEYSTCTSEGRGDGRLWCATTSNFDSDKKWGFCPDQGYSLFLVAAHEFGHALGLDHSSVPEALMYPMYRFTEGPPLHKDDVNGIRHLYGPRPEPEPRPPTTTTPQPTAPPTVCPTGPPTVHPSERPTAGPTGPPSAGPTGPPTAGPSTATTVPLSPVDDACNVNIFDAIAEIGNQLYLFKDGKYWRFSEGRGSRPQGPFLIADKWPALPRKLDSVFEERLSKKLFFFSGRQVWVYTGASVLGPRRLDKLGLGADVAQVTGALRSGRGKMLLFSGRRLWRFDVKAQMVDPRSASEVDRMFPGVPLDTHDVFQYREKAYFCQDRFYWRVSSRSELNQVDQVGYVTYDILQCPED
Chain of MMP-2 (P08253 110-660): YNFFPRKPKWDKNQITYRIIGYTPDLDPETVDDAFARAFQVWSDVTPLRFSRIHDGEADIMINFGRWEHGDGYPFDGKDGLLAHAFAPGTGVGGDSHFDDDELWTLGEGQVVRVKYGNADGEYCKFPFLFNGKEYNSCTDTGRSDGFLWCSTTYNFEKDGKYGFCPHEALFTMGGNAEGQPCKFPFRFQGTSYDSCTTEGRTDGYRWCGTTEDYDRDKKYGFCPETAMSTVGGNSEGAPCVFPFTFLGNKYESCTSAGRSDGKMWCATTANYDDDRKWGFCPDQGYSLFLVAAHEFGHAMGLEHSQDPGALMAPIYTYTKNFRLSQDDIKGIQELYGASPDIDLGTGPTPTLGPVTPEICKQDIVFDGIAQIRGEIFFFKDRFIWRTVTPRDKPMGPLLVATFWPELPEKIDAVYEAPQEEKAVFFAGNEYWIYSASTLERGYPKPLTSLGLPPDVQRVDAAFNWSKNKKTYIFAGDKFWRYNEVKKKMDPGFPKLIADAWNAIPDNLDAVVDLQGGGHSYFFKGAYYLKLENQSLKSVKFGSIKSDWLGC
T1 sequence (P08254 100-477): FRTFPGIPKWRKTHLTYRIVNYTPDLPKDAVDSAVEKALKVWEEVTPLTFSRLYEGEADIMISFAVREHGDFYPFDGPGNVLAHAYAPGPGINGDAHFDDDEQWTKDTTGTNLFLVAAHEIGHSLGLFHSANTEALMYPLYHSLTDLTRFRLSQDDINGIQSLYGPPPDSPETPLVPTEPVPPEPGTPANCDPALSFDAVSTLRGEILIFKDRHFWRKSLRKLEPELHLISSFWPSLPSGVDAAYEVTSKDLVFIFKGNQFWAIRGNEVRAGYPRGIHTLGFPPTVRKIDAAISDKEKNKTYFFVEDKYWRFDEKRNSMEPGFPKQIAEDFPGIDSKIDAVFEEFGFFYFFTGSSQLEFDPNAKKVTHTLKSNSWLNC

The term IC50 denotes the concentration needed to halve the response being measured. Take `CC1=NCC(=O)N(CCC(CC(=O)c2ccc(-c3ccc(Cl)cc3)cc2)C(=O)O)c2ccccc21` (stereo not drawn) [Example 22, α-[2-(4'-chloro[1,1'-biphenyl]-4-yl)-2-oxoethyl]-2,3-dihydro-5-methyl-2-oxo-1H-1,4-benzodiazepine-1-butanoic acid]: the half-inhibitory concentration (IC50) on MMP-3 is 140 nM; at MMP-9, 120 nM; against MMP-2, 24 nM.
On the same counts, the results for `O=C(c1ccc(-c2ccc(Cl)cc2)cc1)C1CCC(Cn2nnc3ccccc3c2=O)C1C(=O)O` (stereo not drawn) [Example 1, 2-[(4'-chloro[1,1'-biphenyl]-4-yl)carbonyl]-5-[(4-oxo-1,2,3-benzotriazin-3(4H)-yl)methyl]-cyclopentanecarboxylic acid] are 1.7 nM, 0.34 nM and 0.39 nM.
In the case of `O=C(CC(CCn1nnc2ccccc2c1=O)C(=O)O)c1ccc(-c2ccc(Cl)cc2)cc1` (stereo not drawn) [Example 19, α-[2-(4'-chloro[1,1'-biphenyl]-4-yl)-2-oxoethyl]-4-oxo-1,2,3,-Benzotriazine-3(4H)-butanoic acid], the IC50 on MMP-3 was determined as 47 nM; at MMP-9, 4.7 nM; on MMP-2, 2.4 nM.
